Values quoted from earlier work as cited in patent US7527814B2, “Process for the isolation of calliterpenone” (Council of Scientific and Industrial Research, priority 2006, dated 2009).

Experiments:
[1] = system: growth retardant effects produced by allelochemicals; conditions: Singh et al., U.S. Pat. No. 6,673,749 (2004)
plant growth = conditions: if used in a particular method

CC1(C)C(=O)CC[C@@]2(C)[C@H]1CC[C@@]13C[C@H](CC[C@@H]12)[C@@](O)(CO)C3 [calliterpenone, 16α,17 dihydroxy-3-oxo phyllocladane]
effect on growth retardant effects produced by allelochemicals [1]: antagonizes the growth retardant effects produced by allelochemicals
plant growth promoting effect compared with GA3 (plant growth): better plant growth promoting effect than GA3
